This assay concerns the target T1, SgGAPDH (Streptococcus gordonii, UniProt Q68AZ3).
T1 construct: gene GAPDH
The assay is described as follows: biochemical.

A word on the Kd: it is a measure of binding affinity in units of concentration. A lower Kd goes with higher affinity.

T1 sequence (Q68AZ3 entry or part of it): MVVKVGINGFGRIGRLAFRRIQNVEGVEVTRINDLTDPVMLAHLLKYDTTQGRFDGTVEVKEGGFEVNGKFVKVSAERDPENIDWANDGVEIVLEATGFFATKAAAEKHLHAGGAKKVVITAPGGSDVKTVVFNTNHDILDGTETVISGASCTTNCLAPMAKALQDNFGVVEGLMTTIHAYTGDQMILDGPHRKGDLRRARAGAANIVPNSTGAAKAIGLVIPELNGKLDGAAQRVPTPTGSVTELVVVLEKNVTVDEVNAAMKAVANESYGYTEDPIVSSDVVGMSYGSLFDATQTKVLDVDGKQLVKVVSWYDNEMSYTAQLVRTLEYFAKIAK

`C=CC1=C(C)C2=Cc3c(C=C)c(C)c4[n]3[Fe]([Cl])[n]3c(c(C)c(CCC(=O)O)c3=CC3=NC(=C4)C(C)=C3CCC(=O)O)=CC1=N2` [Fe(III)heme] returned a Kd of 1.7 µM.

Source of the values: publication PMC7312356 (International Journal of Molecular Sciences, 2020).
